Laboratory results: US20250034196A1, “ESTER DERIVATIVES OF N4-HYDROXYCYTIDINE AND USE THEREOF” (priority 2021, published 2025)

What was measured:
SARS-CoV-2 = conditions: 800 mg twice a day for 5 days, early infected patients; cited from earlier work
in vitro [1] = assay type: in vitro ADME; conditions: microsomes, pH 7.4
Procedure: (§1) Preparation of Solutions: Stock solution (10 mM) of each of test compounds was prepared in DMSO. The stock solution for each compound was then diluted into 100 μM with acetonitrile.
(§2) Microsome Incubations: Incubation mixtures were prepared in a total volume of 200 μL with final component concentrations as follows: 0.1M PBS (pH 7.4), NADPH (2 mM) and liver microsomes (0.2 mg/mL) as well as test compound (1 μM) or Molnupiravir (1 μM) as a positive control, wherein the NADPH was added after a 5-min preincubation of all other components at 37° C. Pipette-mixed to achieve a homogenous suspension and immediately transferred 20 μL incubate as a 0 min sample to wells in a “Quenching” plate followed by adding 200 μL of acetonitrile with metolazone as IS and pipette-mixing. At 2, 5, 10, and 45 min, pipette-mixed the incubate and serially transfer samples of 20 μL incubate per time point to wells in a separate “Quenching” plate followed by adding 200 μL of acetonitrile with metolazone as IS and pipette-mixing.
(§3) Sample Analysis: The 96-well plate was centrifuged at 6000 g for 10 min. The supernatant was injected onto the LC-MS/MS system for analysis.

Microsome stability = assay type: in vitro ADME, Monkey; conditions: Monkey liver microsomes 0.2 mg/mL, NADPH, 1 μM
Procedure: as §1, §2, §3

in vitro [2] = conditions: African green monkey
in vivo = experiment: in vivo; set-up: species or system Beagle Dogs; conditions: dog, po, 22 mg/kg; for AUC(0-inf): AUCINF of CH2107 (Molnupiravir); for AUC(0-t): AUClast of CH2107 (Molnupiravir); for Cmax: Cmax of CH2107 (Molnupiravir); for MRT inf: MRTINF of CH2107 (Molnupiravir); for half-life: T1/2 of CH2107 (Molnupiravir); for Tmax: Tmax of CH2107 (Molnupiravir)
Procedure: Example 174: Pharmacokinetic Study of EX-2 (CH2101), Molnupiravir (CH2017) and its Metabolite NHC (CH2018) Following a Single PO Administration of EX-2 (CH2101) or Molnupiravir (CH2017) in Male and Female Beagle Dogs
Both test compounds were prepared in 1% methyl cellulose (400 cps, SIGMA, SLCF9694) solution in purified water.
A total of 6 male+6 female Beagle Dogs, approximately 7-13 kg of bodyweight, were originally purchased from Marshall Biotechnology Co., Ltd. The animals were fasted overnight prior to dosing and food was re-provided after 4 hours post dosing.
The animals were restrained manually, and approximately 1 mL of blood at each time point was collected into pre-cooled EDTA-K2 tubes via cephalic or saphenous veins. Blood samples were centrifuged at 4° C. (4000 rpm. 5 min) to obtain plasma within 30 min after sample collection. All samples were stored at approximately −80° C. until analysis. The backup samples will be discarded after the in vivo experiment has been completed for two months unless requested.

in vitro [3] = assay type: in vitro ADME; conditions: plasma
Procedure: as §1
Plasma Incubations: Plasma incubations were conducted in duplicate in 96-well plate at 37° C. Plasma was prewarmed in a total volume of 198 μL for 5 min at 37° C., then added 2 μL of 100 μM test compound into an incubation well containing plasma, pipette-mixed to achieve a homogenous suspension and immediately transferred 20 μL incubate as a 0 min sample to wells in a “Quenching” plate followed by adding 200 μL of acetonitrile with metolazone as internal standard (IS) and pipette-mixing. At 2, 5, 60, and 90 min, pipette-mixed the incubate and serially transfer samples of 20 μL incubate per time point to wells in a separate “Quenching” plate followed by adding 200 μL of acetonitrile with metolazone as IS and pipette-mixing.
as §3

[4] = both sexes, beagle, Plasma concentration of CH2107 (Molnupiravir)
[5] = female, beagle, Plasma concentration of CH2107 (Molnupiravir)
[6] = male, beagle, Plasma concentration of CH2107 (Molnupiravir)

For CC(C)C(=O)OC[C@H]1O[C@@H](n2ccc(NO)nc2=O)[C@H](O)[C@@H]1O [Molnupiravir], the “Reduction in patients progressing into hospitalizations” value (SARS-CoV-2) is given as 50%, the half-life at 1 µM (in vitro [1]; dog) is given as 3.9 min and the half-life at 1 µM (in vitro [1]; human) is given as 71.3 min. For the same molecule, the half-life at 1 µM (in vitro [1]; mouse) was 5.6 min, the half-life at 1 µM (in vitro [1]; rat) was 13.8 min and the T1/2 (Microsome stability) was 4.7 min. The CC50 at 4 days (in vitro [2]) was > 100 µM, the AUC(0-inf) (in vivo; both sexes, Beagle) was 932 ng·h/mL and the AUC(0-t) (in vivo; both sexes, Beagle) was 930 ng·h/mL. For the same molecule, the Cmax (in vivo; both sexes, Beagle) was 1320 ng/mL, the MRT inf (in vivo; both sexes, Beagle) was 38.9 min and the half-life (in vivo; both sexes, Beagle) was 25.2 min. The concentration at 0.083 hr (in vivo; [4]) was 496 ng/mL, the concentration at 0.25 hr (in vivo; [4]) was 1300 ng/mL and the concentration at 0.5 hr (in vivo; [4]) was 1010 ng/mL. It also gave a concentration at 1 hr (in vivo; [4]) of 230 ng/mL, a concentration at 2 hr (in vivo; [4]) of 28.2 ng/mL and a concentration at 4 hr (in vivo; [4]) of 4.75 ng/mL. For the same molecule, the concentration at 6 hr (in vivo; [4]) was 5.45 ng/mL, the concentration at 8 hr (in vivo; [4]) was 1.08 ng/mL and the Tmax (in vivo; both sexes, beagle) was 18.8 min. For the same molecule, the “AUCmale/female of CH2107 (Molnupiravir)” value (in vivo; both, Beagle) was 171%, the “AUCmale/female of EX-1/NHC/CH2018” value (in vivo; both, Beagle) was 128% and the “Plasma concentration of EX-1/NHC/CH2018” value (in vivo; both, Beagle, 0.083 hr) was 527 ng/mL. The “Plasma concentration of EX-1/NHC/CH2018” value (in vivo; both, Beagle, 0.25 hr) was 5653 ng/mL, the “Plasma concentration of EX-1/NHC/CH2018” value (in vivo; both, Beagle, 0.5 hr) was 8040 ng/mL and the “Plasma concentration of EX-1/NHC/CH2018” value (in vivo; both, Beagle, 1 hr) was 8648 ng/mL. The “Plasma concentration of EX-1/NHC/CH2018” value (in vivo; both, Beagle, 2 hr) was 4038 ng/mL, the “Plasma concentration of EX-1/NHC/CH2018” value (in vivo; both, Beagle, 4 hr) was 970 ng/mL and the “Plasma concentration of EX-1/NHC/CH2018” value (in vivo; both, Beagle, 6 hr) was 244 ng/mL. The “Plasma concentration of EX-1/NHC/CH2018” value (in vivo; both, beagle, 8 hr) was 105 ng/mL, the “Plasma concentration of EX-1/NHC/CH2018” value (in vivo; both, beagle, 24 hr) was 18.4 ng/mL and the “AUCINF of CH2107 (Molnupiravir)” value (in vivo; female, Beagle) was 778 ng·h/mL. For the same molecule, the “AUClast of CH2107 (Molnupiravir)” value (in vivo; female, Beagle) was 778 ng·h/mL, the AUC(0-inf) (in vivo; female, Beagle) was 598 ng·h/mL and the AUC(0-t) (in vivo; female, Beagle) was 596 ng·h/mL. The Cmax (in vivo; female, Beagle) was 1080 ng/mL, the “Plasma concentration of CH2107 (Molnupiravir)” value (“Plasma concentration of CH2107” below) (in vivo; female, beagle, 0.5 hr) was 693 ng/mL and the “Plasma concentration of CH2107” value (in vivo; female, beagle, 1 hr) was 120 ng/mL. For the same molecule, the “Plasma concentration of CH2107” value (in vivo; female, beagle, 4 hr) was 8.06 ng/mL, the “Plasma concentration of CH2107” value (in vivo; female, beagle, 6 hr) was 5.45 ng/mL and the “Plasma concentration of CH2107” value (in vivo; female, beagle, 8 hr) was 1.08 ng/mL. The concentration at 0.5 hr (in vivo; [5]) was 499 ng/mL, the concentration at 1 hr (in vivo; [5]) was 207 ng/mL and the concentration at 4 hr (in vivo; [5]) was 8.06 ng/mL. It also gave a concentration at 6 hr (in vivo; [5]) of 5.45 ng/mL, a concentration at 8 hr (in vivo; [5]) of 1.08 ng/mL and a Tmax (in vivo; female, beagle) of 30 min. The “AUCINF of CH2107 (Molnupiravir)” value (in vivo; male, Beagle) was 1246 ng·h/mL, the “AUClast of CH2107 (Molnupiravir)” value (in vivo; male, Beagle) was 1245 ng·h/mL and the “Cmax of CH2107 (Molnupiravir)” value (in vivo; male, Beagle) was 1680 ng/mL. The “MRTINF of CH2107 (Molnupiravir)” value (in vivo; male, Beagle) was 34 min, the “T1/2 of CH2107 (Molnupiravir)” value (in vivo; male, Beagle) was 21.1 min and the “Plasma concentration of CH2107” value (in vivo; male, Beagle, 0.25 hr) was 1680 ng/mL. It also gave an AUC(0-inf) (in vivo; male, Beagle) of 1100 ng·h/mL, an AUC(0-t) (in vivo; male, Beagle) of 1100 ng·h/mL and an MRT inf (in vivo; male, Beagle) of 27.7 min. For the same molecule, the half-life (in vivo; male, Beagle) was 12.7 min, the “Plasma concentration of CH2107” value (in vivo; male, beagle, 0.5 hr) was 1430 ng/mL and the “Plasma concentration of CH2107” value (in vivo; male, beagle, 2 hr) was 11.1 ng/mL. The “Plasma concentration of CH2107” value (in vivo; male, beagle, 4 hr) was 1.44 ng/mL, the Cmax (in vivo; male, beagle) was 1450 ng/mL and the concentration at 0.25 hr (in vivo; [6]) was 1450 ng/mL. The concentration at 0.5 hr (in vivo; [6]) was 1420 ng/mL, the concentration at 2 hr (in vivo; [6]) was 9.81 ng/mL and the concentration at 4 hr (in vivo; [6]) was 1.44 ng/mL. The Tmax (in vivo; male, beagle) was 15 min, the half-life at 1 µM (in vitro [3]; dog) was 39.4 min and the half-life at 1 µM (in vitro [3]; human) was 66.2 min. The half-life at 1 µM (in vitro [3]; monkey) was 25.8 min, the half-life at 1 µM (in vitro [3]; mouse) was 25.8 min and the half-life at 1 µM (in vitro [3]; rat) was 3.3 min.
